US8497075B2, “Methods of identifying a modulator that inhibits the binding between Epstein-Barr virus induced receptor 2 and cholesterol derived ligands” (Novartis AG, priority 2008, dated 2013)

Tests used:
hEBI2 [1] = molecular target: T1, hEBI2 (Homo sapiens, UniProt P32249); assay: β-arrestin Pathhunter assay; format: cell-based; set-up: host or cells: HEK293-BAEA, transient transfection with Fugene6; conditions: for EC50: HEK293-BAEA transiently transfected with hEBI2-prolink, read-out: EC50, β-arrestin recruitment
Description: Several assay technologies (Transfluor™, (Ghosh, R. N., et al. (2005). Quantitative cell-based high-content screening for vasopressin receptor agonists using transfluor technology. J Biomol Screen 10.; Granas, C., at al. (2005). High content screening for G protein-coupled receptors using cell-based protein translocation assays. Comb Chem High Throughput Screen 8.); Pathhunter™, (Hammer, M. M., et al. (2007). A novel enzyme complementation-based assay for monitoring G-protein-coupled receptor internalization. Faseb J, 21; Wehrman, T. S., at al. (2005). Enzymatic detection of protein translocation. Nat Methods 2), Tango™, (Barnea, G., et al. (2008). Here we have applied the Pathhunter™ technology (DiscoverRx) to probe for an interaction of EBI2 with B-arrestin. For that human EBI2 was cloned into the Prolink™ vector (DiscoveRx) for GPCR-prolink fusion protein production. Parental HEK293 cells that stably express β-arrestin2-β-gal-EA fusion protein (HEK293-BAEA) were detached and transiently transfected with hEBI2-prolink vector using Fugene6 transfection reagent in suspension mode. Transfected cells in assay medium (Phenol Red-free DMEM with 10% FBS) were plated into white solid 384 well plates at 15,000 cells/25 μl/well. After overnight incubation, 200 nl of test molecules were transferred into the cell plates by PinTool™ (GNF Systems) followed by 1-2 hour incubation at 37° C., 5% CO2. Flash detection reagents were added at 12.5 μl/well. After 5 min—1 hr room temperature incubation, the cell plates were read on CLIPR™ (Perkin Elmer) or Acquest™ (Molecular Devices) for luminescence signal.

hEBI2 [2] = molecular target: T1, hEBI2; assay: aequorin assay, hEBI2 stably transfected CHO-AeqGα16 cells; format: cell-based; set-up: expressed in transfected cells; host or cells: CHO-K1 expressing apoaequorin (CHO-Aeq) with Gqi5; line E2
Description: Stable cell line expressing human EBI2 (in pcDNA3.1 vector) and Gα16 was generated with parental CHO cells that stably express apo-aequorin (Euroscreen CHO-A12 cell line). The cells were seeded into 384 well black clear bottom plates (Greiner Bio-one) at 10,000 cells/25 μl well in F12 medium containing 3% FBS and incubated overnight. Coelenterazine (20 μM final) was added into the cell plates at 25 μl/well. The cell plates were returned to incubator for 3 hrs. The compounds were diluted 1:20 into an intermediate plate with Tyrode buffer (130 mM NaCl, 2 mM CaCl2, 5 mM NaHCO3, 5 mM KCl, 1 mM MgCl2, 20 mM HEPES, pH 7.4). 12.5 μl/well of pre-diluted compounds were transfered into the cell assay plate and read on LumiLux™ (Perkin Elmer) for flash luminescence.
An algorithm similar to area under curve (AUC) was created in house to analyze the aequorin kinetic data, which was named Slope Threshold (Slope 100). The algorithm defines the beginning and the end of the luminescence intensity peak by comparing the difference in intensity of each time point with an earlier time point, and determining if the difference exceeds a defined threshold, which was usually set at 100. If it does, then the intensity of the later time point is added into the Slope Threshold's sum.

[3] = tested on: MAP/ERK signaling pathway (p44/42 MAP kinase); assay: Western blot of MAP/ERK phosphorylation, EBI2 expressing CHO cell line; format: cell-based, Chinese hamster; conditions: 5 min after compound addition
Description: Cells (E2=CHO/AEQ/Gqi5/hEBI2) were seeded at 2×10^5 cell/well in a 12 well plate (TPP #92012) and incubated at 37° C./5% CO2 overnight. The next day medium was removed and cells were starved in serum-free medium for 4 h. Subsequently compound was added for 5 min at RT before cells were lysed (70 ul, 0.5% Triton-X100, 300 mM NaCl, 50 mM Tris pH7.5, Complete™ protease inhibitor cocktail Roche #04693124001). Cell lysates were resolved by gradient SDS-PAGE (NuPage™4-12%, #NP0322Box), transferred by semi-dry blotting to nitrocellulose (Invitrogen, #LC2001) and probed with a phospho p42/44 MAPK (T202/Y204) rabbit mAb (Cell Signalling #4376S). After treatment with a secondary goat anti rabbit-HRP (Pierce #41460) antibody the blots were developed for chemiluminescence (SuperSignal West Dura™, Pierce #34075) and visualized using a BioRad GEL DOC™ imaging system.

[4] = tested on: mouse bone marrow-derived dendritic cells (wild type); assay: chemotaxis assay, wild type dendritic cells; format: cell-based
Description: B cells (RS11846 or EBV-infected human B-cells) or murine bone marrow-derived dendritic cells were washed once with medium and resuspended at 1×10^6/ml. 100 μl of this suspension was added into the wells of the filter plate and gently placed into the receiver plate containing 150 μl of a given compound dilution. The final DMSO concentration was less then 0.1%. After migration for 3 hr at 37° C. in an incubator, the filter plate was carefully removed from the receiver plate and discarded. The migrated cells in the receiver plate were resuspended and transferred into round-bottom 96-well plate, centrifuged and resuspended in 100 μl PBS containing 2% FCS and 0.1% NaN3 (FACS buffer). The input cells (100 μl) were similarly processed. For the calculation of the specific migration, a fixed number of beads (10000; Invitrogen #PCB100)) in 20 μl FACS buffer was added and the suspension was analyzed by flow cytometry using a FACS instrument PAS™ (Partec). Cells were identified based on their forward scatter (FSC) and side scatter (SSC) pattern. Chemotaxis is expressed either as total cell number or as percent of input cells.
In order to generate sufficient numbers of dendritic cells (DC) we isolated bone marrow from wild type and EBI2-deficient mice (Deltagen) and treated them in culture for 7-8 days with murine IL4 and murine GM-CSF. […]

T1 sequence (P32249 whole entry): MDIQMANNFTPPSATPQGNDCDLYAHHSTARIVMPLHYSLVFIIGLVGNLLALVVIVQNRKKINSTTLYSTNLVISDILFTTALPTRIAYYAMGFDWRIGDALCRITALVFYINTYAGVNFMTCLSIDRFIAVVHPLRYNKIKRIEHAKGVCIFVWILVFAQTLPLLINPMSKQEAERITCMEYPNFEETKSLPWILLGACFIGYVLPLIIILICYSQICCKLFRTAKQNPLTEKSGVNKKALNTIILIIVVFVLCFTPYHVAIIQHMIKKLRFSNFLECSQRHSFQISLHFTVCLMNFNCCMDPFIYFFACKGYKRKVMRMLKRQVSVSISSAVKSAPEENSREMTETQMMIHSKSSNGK

Compound | efficacy, β-arrestin recruitment (hEBI2 [1]) [%] | EC50 (hEBI2 [1]) [nM] | EC50 (hEBI2 [2]; CHO-AeqGα16, read-out: EC50, activation of EBI2 (aequorin)) [nM] | activation of MAP/ERK signaling pathway (p44/42 MAP kinase phosphorylation) [3] | migration of DCs from wild type animals towards compound [4] | EC50 (hEBI2 [2]) [nM]
C[C@H](CCCC(C)(C)O)[C@H]1CC[C@H]2[C@@H]3[C@@H](O)C=C4C[C@@H](O)CC[C@]4(C)[C@H]3CC[C@]12C [7b,25DHC, cholest-5-ene-3b,7b,25-triol] | 48 | 837 | 398 |  |  | 
C[C@H](CCCC(C)(C)O)[C@H]1CC[C@H]2[C@@H]3[C@H](O)C=C4C[C@@H](O)CC[C@]4(C)[C@H]3CC[C@]12C [7a,25DHC, cholest-5-ene-3b,7a,25-triol] |  | 8 |  | potently activate | migrate | 18.4
